# US20060293307A1, “Oxazolidinone derivatives as antimicrobials” (priority 2002, published 2006)
# Read-outs that look alike come from different tables or passages of the source.
# Tests used:
# [1] = tested on: S. pneumoniae CS 1687; assay: MIC, agar incorporation method; format: cell-based, Streptococcus pneumoniae; settings: S. No. 44, S. pneumoniae CS 1687
# [2] = tested on: H. influenzae 1381; assay: MIC against Haemophilus strains; format: cell-based; settings: s. No. 7, H. influenzae 1381
# [3] = tested on: S. pneumoniae AB 31; assay: MIC, agar incorporation method; format: cell-based, Streptococcus pneumoniae; settings: S. No. 36, S. pneumoniae AB 31
# [4] = tested on: S. pneumoniae AB 14; assay: MIC, agar incorporation method; format: cell-based, Streptococcus pneumoniae; settings: S. No. 37, S. pneumoniae AB 14
# [5] = tested on: S. pneumoniae ATCC 6303; assay: MIC, agar incorporation method; format: cell-based, Streptococcus pneumoniae; settings: S. No. 50, S. pneumoniae ATCC 6303
# [6] = tested on: S. epidermidis 823; assay: MIC, agar incorporation method; format: cell-based, Staphylococcus epidermidis; settings: S. No. 12, S. epidermidis 823
# [7] = tested on: Moraxella cata. M2; assay: MIC, agar incorporation method; format: cell-based; settings: S. No. 59, Moraxella cata. M2
# [8] = tested on: S. pneumoniae AB-3; assay: MIC, agar incorporation method; format: cell-based, Streptococcus pneumoniae; settings: S. No. 32, S. pneumoniae AB-3
# [9] = tested on: S. pneumoniae AB 25; assay: MIC, agar incorporation method; format: cell-based, Streptococcus pneumoniae; settings: S. No. 45, S. pneumoniae AB 25
# [10] = tested on: S. epidermidis 358; assay: MIC, agar incorporation method; format: cell-based, Staphylococcus epidermidis; settings: S. No. 14, S. epidermidis 358
# [11] = tested on: E. faecium 398(VRE); assay: MIC, agar incorporation method; format: cell-based, Enterococcus faecium; settings: S. No. 22, E. faecium 398(VRE)
# [12] = tested on: E. faecium 6A (VRE); assay: MIC, agar incorporation method; format: cell-based, Enterococcus faecium; settings: S. No. 21, E. faecium 6A (VRE)
# [13] = tested on: Acinetobacter 9956; assay: MIC, agar incorporation method; format: cell-based; settings: S. No. 30, Acinetobacter 9956
# [14] = tested on: E. coli 25922; assay: MIC, agar incorporation method; format: cell-based; settings: S. No. 25, E. coli 25922
# [15] = tested on: S. pneumoniae 1256; assay: MIC, agar incorporation method; format: cell-based, Streptococcus pneumoniae; settings: S. No. 56, S. pneumoniae 1256
# [16] = tested on: H. influenzae βIac; assay: MIC against Haemophilus strains; format: cell-based; settings: s. No. 3, H. influenzae βIac
# [17] = tested on: S. pneumoniae AB 30; assay: MIC, agar incorporation method; format: cell-based, Streptococcus pneumoniae; settings: S. No. 47, S. pneumoniae AB 30
# [18] = tested on: E. faecalis 21777; assay: MIC, agar incorporation method; format: cell-based; settings: S. No. 18, E. faecalis 21777
# [19] = tested on: Moraxella M1; assay: MIC, agar incorporation method; format: cell-based; settings: S. No. 58, Moraxella M1
# [20] = tested on: S. pneumoniae AB 10; assay: MIC, agar incorporation method; format: cell-based, Streptococcus pneumoniae; settings: S. No. 35, S. pneumoniae AB 10
# [21] = tested on: E. durans 581; assay: MIC, agar incorporation method; format: cell-based; settings: S. No. 24, E. durans 581
# [22] = tested on: S. epidermidis (MRSE)32965; assay: MIC, agar incorporation method; format: cell-based, Staphylococcus epidermidis; settings: S. No. 13, S. epidermidis (MRSE)32965
# [23] = tested on: S. pyogenes 25147; assay: MIC, agar incorporation method; format: cell-based, Streptococcus pyogenes; settings: S. No. 52, S. pyogenes 25147
# [24] = tested on: S. pneumoniae AB 34; assay: MIC, agar incorporation method; format: cell-based, Streptococcus pneumoniae; settings: S. No. 49, S. pneumoniae AB 34
# [25] = tested on: S. aureus (Smith 49951); assay: MIC, agar incorporation method; format: cell-based, Staphylococcus aureus; settings: S. No. 9, S. aureus (Smith 49951)
# [26] = tested on: S. pneumoniae ATCC 49619; assay: MIC, agar incorporation method; format: cell-based, Streptococcus pneumoniae; settings: S. No. 48, S. pneumoniae ATCC 49619
# [27] = tested on: K. oxytoca 49131; assay: MIC, agar incorporation method; format: cell-based; settings: S. No. 27, K. oxytoca 49131
# [28] = Streptococcus pneumoniae, CS1687, read-out: MIC
# [29] = Haemophilus influenzae, read-out: MIC
# [30] = Streptococcus pneumoniae, AB31, read-out: MIC
# [31] = Streptococcus pneumoniae, AB14, read-out: MIC
# [32] = Streptococcus pneumoniae, ATCC6303, read-out: MIC
# [33] = Staphylococcus epidermidis, read-out: MIC
# [34] = Streptococcus pneumoniae, AB3, read-out: MIC
# [35] = Streptococcus pneumoniae, AB25, read-out: MIC
# [36] = Enterococcus faecium, read-out: MIC
# [37] = Escherichia coli, read-out: MIC
# [38] = Streptococcus pneumoniae, read-out: MIC
# [39] = Streptococcus pneumoniae, AB30, read-out: MIC
# [40] = Enterococcus faecalis, read-out: MIC
# [41] = Streptococcus pneumoniae, AB10, read-out: MIC
# [42] = Enterococcus durans, read-out: MIC
# [43] = Streptococcus pyogenes, read-out: MIC
# [44] = Streptococcus pneumoniae, AB34, read-out: MIC
# [45] = Staphylococcus aureus, read-out: MIC
# [46] = Streptococcus pneumoniae, ATCC49619, read-out: MIC
# [47] = Klebsiella oxytoca, read-out: MIC
compound,measurement,setting,value
"CC(=O)NC[C@H]1CN(c2ccc(N3CCN(c4ccc(C=O)o4)CC3)c(F)c2)C(=O)O1 [Compound No. 3, (S)—N-[[3-[3-Fluoro-4-[4-(5-formyl-2-furyl)-1-piperazinyl]phenyl]-2-oxo-5-oxazolidinyl]methyl]acetamide]",MIC,[1]; [28],0.25 µg/mL
same,MIC,[2]; [29],8 µg/mL
same,MIC,[3]; [30],0.25 µg/mL
same,MIC,[4]; [31],< 0.125 µg/mL
same,MIC,[5]; [32],0.25 µg/mL
same,MIC,[6]; [33],0.5 µg/mL
same,MIC,[7]; read-out: MIC,1 µg/mL
same,MIC,[8]; [34],0.25 µg/mL
same,MIC,[9]; [35],0.25 µg/mL
same,MIC,[10]; [33],0.5 µg/mL
same,MIC,[11]; [36],0.5 µg/mL
same,MIC,[12]; [36],0.5 µg/mL
same,MIC,[13]; read-out: MIC,> 16 µg/mL
same,MIC,[14]; [37],> 16 µg/mL
same,MIC,[15]; [38],0.5 µg/mL
same,MIC,[16]; [29],4 µg/mL
same,MIC,[17]; [39],0.25 µg/mL
same,MIC,[18]; [40],0.5 µg/mL
same,MIC,[19]; read-out: MIC,2 µg/mL
same,MIC,[20]; [41],< 0.125 µg/mL
same,MIC,[21]; [42],0.5 µg/mL
same,MIC,[22]; [33],0.5 µg/mL
same,MIC,[23]; [43],0.25 µg/mL
same,MIC,[24]; [44],0.25 µg/mL
same,MIC,[25]; [45],0.5 µg/mL
same,MIC,[26]; [46],0.25 µg/mL
same,MIC,[27]; [47],> 16 µg/mL
"CC(=O)NC[C@H]1CN(c2ccc(N3CCN(c4ccc(C=O)s4)CC3)c(F)c2)C(=O)O1 [Compound No. 2, (S)—N-[[3-[3-Fluoro-4-[4-(5-formyl-2-thienyl)-1-piperazinyl]phenyl]-2-oxo-5-oxazolidinyl]methyl]acetamide]",MIC,[1]; [28],0.5 µg/mL
same,MIC,[2]; [29],8 µg/mL
same,MIC,[3]; [30],0.5 µg/mL
same,MIC,[4]; [31],< 0.25 µg/mL
same,MIC,[5]; [32],0.5 µg/mL
same,MIC,[6]; [33],0.5 µg/mL
same,MIC,[7]; read-out: MIC,0.5 µg/mL
same,MIC,[8]; [34],< 0.25 µg/mL
same,MIC,[9]; [35],< 0.25 µg/mL
same,MIC,[10]; [33],0.5 µg/mL
same,MIC,[11]; [36],0.5 µg/mL
same,MIC,[12]; [36],1 µg/mL
same,MIC,[13]; read-out: MIC,> 16 µg/mL
same,MIC,[14]; [37],> 16 µg/mL
same,MIC,[15]; [38],< 0.25 µg/mL
same,MIC,[16]; [29],16 µg/mL
same,MIC,[17]; [39],0.5 µg/mL
same,MIC,[18]; [40],0.5 µg/mL
same,MIC,[19]; read-out: MIC,0.5 µg/mL
same,MIC,[20]; [41],< 0.25 µg/mL
same,MIC,[21]; [42],0.5 µg/mL
same,MIC,[22]; [33],< 0.25 µg/mL
same,MIC,[23]; [43],0.5 µg/mL
same,MIC,[24]; [44],0.5 µg/mL
same,MIC,[25]; [45],0.5 µg/mL
same,MIC,[26]; [46],0.5 µg/mL
same,MIC,[27]; [47],> 16 µg/mL
"O=C(NC[C@H]1CN(c2ccc(N3CCN(c4ccc([N+](=O)[O-])s4)CC3)c(F)c2)C(=O)O1)C(Cl)Cl [compound 9, (S)—N-[[3-[-3-Fluoro-4-[N-1-(5-nitro-2-thienyl)-piperazinyl]phenyl] -2-oxo-5-oxazolidinyl]methyl]dichloroacetamide]",MIC,[1],0.5 µg/mL
same,MIC,[2],>16 µg/mL
same,MIC,[3],0.25 µg/mL
same,MIC,[4],0.25 µg/mL
same,MIC,[5],0.25 µg/mL
same,MIC,[6],0.5 µg/mL
same,MIC,[7],1 µg/mL
same,MIC,[8],0.25 µg/mL
same,MIC,[9],0.25 µg/mL
same,MIC,[10],0.5 µg/mL
same,MIC,[11],0.5 µg/mL
same,MIC,[12],0.5 µg/mL
same,MIC,[13],>8 µg/mL
same,MIC,[14],>8 µg/mL
same,MIC,[15],0.25 µg/mL
same,MIC,[16],>16 µg/mL
same,MIC,[17],0.25 µg/mL
same,MIC,[18],0.5 µg/mL
same,MIC,[19],1 µg/mL
same,MIC,[20],0.25 µg/mL
same,MIC,[21],0.5 µg/mL
same,MIC,[22],0.5 µg/mL
same,MIC,[23],0.5 µg/mL
same,MIC,[24],0.5 µg/mL
same,MIC,[25],0.5 µg/mL
same,MIC,[26],0.25 µg/mL
same,MIC,[27],>8 µg/mL
(S)—N-[[3-[-3-Fluoro-4-[(5-nitro-2-thienyl)-3-methyl-1-piperazinyl]phenyl]-2-oxo-5-oxazolidinyl]methyl]acetamide [Compound No. 10],MIC,[1],0.5 µg/mL
same,MIC,[2],>16 µg/mL
same,MIC,[3],0.5 µg/mL
same,MIC,[4],0.5 µg/mL
same,MIC,[5],0.5 µg/mL
same,MIC,[6],0.5 µg/mL
same,MIC,[7],2 µg/mL
same,MIC,[8],0.5 µg/mL
same,MIC,[9],0.5 µg/mL
same,MIC,[10],0.5 µg/mL
same,MIC,[11],0.5 µg/mL
same,MIC,[12],1 µg/mL
same,MIC,[13],>8 µg/mL
same,MIC,[14],>8 µg/mL
same,MIC,[15],0.25 µg/mL
same,MIC,[16],>16 µg/mL
same,MIC,[17],0.25 µg/mL
same,MIC,[18],1 µg/mL
same,MIC,[19],2 µg/mL
same,MIC,[20],0.25 µg/mL
same,MIC,[21],0.5 µg/mL
same,MIC,[22],0.5 µg/mL
same,MIC,[23],0.5 µg/mL
same,MIC,[24],1 µg/mL
same,MIC,[25],1 µg/mL
same,MIC,[26],0.5 µg/mL
same,MIC,[27],>8 µg/mL
"C[C@H](Cl)C(=O)NCC1CN(c2ccc(N3CCN(c4ccc([N+](=O)[O-])s4)CC3)c(F)c2)C(=O)O1 (stereo partly drawn) [Compound No. 7, (S)—N-[[3-[3-Fluoro-4-[N-1-{4-(5-nitro-2-thienyl)piperazinyl}]-phenyl]-2-oxo-5-oxazolidinyl]-methyl]-2-chloro-propionamide]",MIC,[1],2 µg/mL
same,MIC,[2],>16 µg/mL
same,MIC,[3],1 µg/mL
same,MIC,[4],1 µg/mL
same,MIC,[5],0.5 µg/mL
same,MIC,[6],2 µg/mL
same,MIC,[7],>8 µg/mL
same,MIC,[8],0.5 µg/mL
same,MIC,[9],0.5 µg/mL
same,MIC,[10],2 µg/mL
same,MIC,[11],8 µg/mL
same,MIC,[12],>8 µg/mL
same,MIC,[13],>8 µg/mL
same,MIC,[14],>8 µg/mL
same,MIC,[15],0.25 µg/mL
same,MIC,[16],>16 µg/mL
same,MIC,[17],0.5 µg/mL
same,MIC,[18],>8 µg/mL
same,MIC,[19],>8 µg/mL
same,MIC,[20],0.5 µg/mL
same,MIC,[21],8 µg/mL
same,MIC,[22],2 µg/mL
same,MIC,[23],2 µg/mL
same,MIC,[24],4 µg/mL
same,MIC,[25],>8 µg/mL
same,MIC,[26],0.5 µg/mL
same,MIC,[27],>8 µg/mL
